Measured values published in US20130143958A1, “DOSAGE UNIT COMPRISING A PROSTAGLANDIN ANALOG FOR TREATING CONSTIPATION” (priority 2001, published 2013).

How the values were obtained:
[1] = cited from earlier work; for effect on the intestine: administered in pharmacological doses
volunteers [2] = experiment: Phase Ia single rising dose study, safety, tolerance and bowel movement frequency; type: in vivo, human
Method: (§1) The safety and tolerance of oral Compound A (13,14-dihydro-15-keto-16,16-difluoro-PGE1) was evaluated in 16 volunteers in a single-dose Phase I study (Phase Ia) at rising per-person doses of 6 μg, 12 μg, 24 μg, 48 μg, 72 μg, and 96 μg compared and in 24 volunteers in a multiple-dose Phase I study (Phase Ib) at rising per-person doses of 24 μg, 30 μg, and 36 μg of Compound A administered three times a day (TID) (i.e., total daily per person doses of 72 μg, 90 μg and 108 μg) for 6 days.
96 μg was the maximum tolerated single oral Compound A dose. […] These occurred in 13 of the 17 volunteers and all resolved. Volunteers receiving placebo experienced five AEs. Most AEs could be categorized as either responses or events commonly reported in Phase I clinical trials (such as headache and lightheadedness) or expected pharmacodynamic responses of Compound A (such as loose bowel movements, diarrhea and abdominal cramping).
Bowel movement frequency was assessed during the 24 hour period after dosing for each dose-level group. Bowel movements were experienced in the placebo and in all active dose groups. […] Compared to only three of twelve subjects experiencing bowel movements in the placebo group, all six subjects in the 96 μg Compound A group experienced bowel movements. Furthermore, the average number of bowel movements per subject in this Compound A group (1.5) was three times greater than the average number of bowel movements per subject in the placebo group (0.5).

volunteers [3] = experiment: Phase Ib multiple rising dose study (TID for 6 days), safety, tolerance and bowel movement frequency; type: in vivo, human; conditions: for total bowel movements in group: placebo 31
Method: as §1
Compound A was determined to be optimal when administered at the 24 μg dose TID and determined to be safe and tolerable up to 36 μg when administered TID for at least 6 days.
Bowel movement frequency was assessed in this study as well. […] A total of 193 bowel movements were experienced in this study. Of these, 31 occurred in the placebo group, 70 in the 24 μg group, 51 in the 30 μg group and 41 in the 36 μg group.

patients = experiment: Phase II dosage study in constipation, 21 days; type: in vivo, human; conditions: for daily average number of spontaneous bowel movements vs placebo: Week 1 and Week 2; for stool consistency: all post-baseline time points
Method: All randomized patients who took at least one dose of double-blind study medication constituted the safety evaluable (SE) population. These patients were included in the demographic data, baseline characteristic data and safety analysis. For efficacy, the same data set was used and is referred to as the intent-to-treat (ITT) population. […] Key efficacy analyses were also performed on the per-protocol (PP) population, which excluded all data for the affected weeks for protocol violators. Patients whose treatments were adjusted were analyzed in their original treatment group (i.e., as randomized).
Eligible patients were treated with either placebo or total daily doses of 24 μg, 48 μg or 72 μg of Compound A for 21 days. One placebo or Compound A capsule was taken 3 times each day (AM, Noon, and PM). Compound A was administered as 24 μg oral capsules. Patients assigned to receive the total daily 24 μg Compound A dose took one Compound A capsule in the AM and one matching placebo capsule both at Noon and in the PM; patients assigned to receive the total daily 48 μg Compound A dose took one Compound A capsule in both the AM and PM and one matching placebo capsule at Noon; patients assigned to receive the total daily 72 μg Compound A dose took one Compound A capsule in the AM, at Noon, and in the PM.

Question: Which “most commonly reported side effect” value ([1]; in vivo) does the source give for `CCCCC(C)(O)C/C=C/[C@H]1[C@H](O)CC(=O)[C@@H]1CCCCCCC(=O)OC` (mixture of isomers) [misoprostol] here?
Answer: diarrhea

Question: Which “effect on the intestine” value [1] does the source give for `CCCCC[C@H](O)/C=C/[C@H]1[C@H](O)CC(=O)[C@@H]1C/C=C\CCCC(=O)O` [PGE2] here?
Answer: stimulate intestinal transit and to cause diarrhea

Question: With `CCCCC[C@H](O)/C=C/[C@@H]1[C@@H](C/C=C\CCCC(=O)O)[C@@H](O)C[C@H]1O` [PGF2α] as the compound, how does the “effect on the intestine” value [1] read?
Answer: stimulate intestinal transit and to cause diarrhea

Question: For `CCCCC(F)(F)C(=O)CCC1C(O)CC(=O)C1CCCCCCC(=O)O` (centres unmarked) [Compound A, 13,14-dihydro-15-keto-16,16-difluoro-PGE1], which “average number of bowel movements per subject relative to placebo group” value (volunteers [2]; 96 μg single dose, 24 hour period after dosing) is on record?
Answer: three

Question: And the “average number of bowel movements per subject” value (volunteers [2]; 96 μg single dose, 24 hour period after dosing, placebo 0.5)?
Answer: 1.5

Question: What about the “subjects experiencing bowel movements” value (volunteers [2]; 96 μg single dose, 24 hour period after dosing, placebo three of twelve) of the same compound?
Answer: all six

Question: What about the “bowel movements compared to placebo” value (volunteers [2]; 24 hour period after dosing) of the same compound?
Answer: trend for increased bowel movements

Question: What about the “total number of AEs” value (volunteers [2]; in vivo) of the same compound?
Answer: 49

Question: What about the “volunteers with AEs” value (volunteers [2]; in vivo) of the same compound?
Answer: 13 of the 17

Question: And the dose-limiting toxicity (volunteers [2]; in vivo, po)?
Answer: nausea

Question: What about the “maximum tolerated single per-person dose” value (volunteers [2]; single oral dose) of the same compound?
Answer: 96 µg

Question: What about the “total bowel movements in group” value (volunteers [3]; 24 μg group TID) of the same compound?
Answer: 70

Question: And the “total bowel movements in group” value (volunteers [3]; 30 μg group TID)?
Answer: 51

Question: What about the “maximum tolerated multiple dose as total daily dose” value (volunteers [3]; 36 μg TID) of the same compound?
Answer: 108 µg

Question: And the “total bowel movements in group” value (volunteers [3]; 36 μg group TID)?
Answer: 41

Question: What about the “best tolerated effective dose” value (volunteers [3]; TID, healthy volunteers) of the same compound?
Answer: 24 µg

Question: And the optimal dose (volunteers [3]; administered TID)?
Answer: 24 µg

Question: And the “central nervous system or physical abnormalities” value (volunteers [3]; in vivo)?
Answer: no central nervous system or physical abnormalities observed

Question: What about the “main dose limiting side effect” value (volunteers [3]; in vivo) of the same compound?
Answer: nausea

Question: What about the “safe and tolerable dose” value (volunteers [3]; in vivo) of the same compound?
Answer: up to 36 μg

Question: And the “vital signs and ECG measurements” value (volunteers [3]; in vivo)?
Answer: normal

Question: And the “maximum tolerated multiple per-person dose” value (volunteers [3]; oral, taken TID, 6 days)?
Answer: 36 µg

Question: What about the “proportion of patients who had a spontaneous bowel movement on Day 1” value (patients; 48 μg total daily dose) of the same compound?
Answer: statistically significant increase

Question: What about the “daily average number of spontaneous bowel movements vs placebo” value (patients; 48 μg total daily dose) of the same compound?
Answer: statistically significant increases

Question: And the constipation severity (patients; 48 μg total daily dose, Week 3)?
Answer: Statistically significant improvements

Question: What about the stool consistency (patients; 48 μg total daily dose) of the same compound?
Answer: Statistically significant improvements

Question: And the “proportion of patients who had a spontaneous bowel movement on Day 1” value (patients; 72 μg total daily dose)?
Answer: statistically significant increase

Question: And the “daily average number of spontaneous bowel movements vs placebo” value (patients; 72 μg total daily dose)?
Answer: statistically significant increases

Question: And the constipation severity (patients; 72 μg total daily dose, Weeks 2 and 3)?
Answer: Statistically significant improvements

Question: What about the stool consistency (patients; 72 μg total daily dose) of the same compound?
Answer: Statistically significant improvements

Question: What about the minimum effective dose (patients; based on statistical analyses) of the same compound?
Answer: 48 μg per day

Question: What about the “overall efficacy, relief of constipation” value (patients; doses as low as 24 μg per day) of the same compound?
Answer: tended to relieve constipation
